Where two headings read alike, the source gives them in different places.
Experiments:
[1] = biological target: T1, recombinant human Meningioma Expressed Antigen 5 (MGEA5), also referred to as O-GlcNAcase (OGA) (Homo sapiens, UniProt O60502); assay: OGA biochemical assay: inhibition of FM-GlcNAc hydrolysis, fluorescence; protocol A (10 nM OGA, 1 h) or protocol B (2 nM OGA, 6 h); conditions: for IC50: read-out: Enzymatic hOGA, pIC50 (converted)
T1 construct: Full length OGA enzyme was purchased at OriGene (cat # TP322411); purchased OriGene TP322411
T1 sequence (O60502 1-916): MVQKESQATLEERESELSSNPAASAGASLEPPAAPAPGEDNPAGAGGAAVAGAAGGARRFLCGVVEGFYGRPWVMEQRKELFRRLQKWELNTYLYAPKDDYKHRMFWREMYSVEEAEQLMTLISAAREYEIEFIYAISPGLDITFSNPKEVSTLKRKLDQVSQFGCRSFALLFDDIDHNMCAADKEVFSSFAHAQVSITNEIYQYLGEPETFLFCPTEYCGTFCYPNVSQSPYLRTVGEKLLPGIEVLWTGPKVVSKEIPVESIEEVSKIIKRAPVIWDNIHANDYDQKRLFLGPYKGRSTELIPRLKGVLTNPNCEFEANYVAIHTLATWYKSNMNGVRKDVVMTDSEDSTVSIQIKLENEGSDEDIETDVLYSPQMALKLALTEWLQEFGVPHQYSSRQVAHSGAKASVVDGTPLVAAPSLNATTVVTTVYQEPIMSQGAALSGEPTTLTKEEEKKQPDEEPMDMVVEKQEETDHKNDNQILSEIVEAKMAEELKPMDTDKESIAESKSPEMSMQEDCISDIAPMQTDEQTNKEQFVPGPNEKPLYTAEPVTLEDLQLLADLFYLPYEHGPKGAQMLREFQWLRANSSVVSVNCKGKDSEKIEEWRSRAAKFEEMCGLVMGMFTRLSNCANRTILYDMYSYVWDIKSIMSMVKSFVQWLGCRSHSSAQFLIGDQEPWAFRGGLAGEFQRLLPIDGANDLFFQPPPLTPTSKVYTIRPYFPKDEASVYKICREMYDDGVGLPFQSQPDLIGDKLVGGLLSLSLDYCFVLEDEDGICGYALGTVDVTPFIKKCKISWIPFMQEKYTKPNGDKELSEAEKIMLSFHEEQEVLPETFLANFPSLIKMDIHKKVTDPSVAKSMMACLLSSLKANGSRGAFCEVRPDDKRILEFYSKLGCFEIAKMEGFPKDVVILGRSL
Description: The hydrolysis FM-GlcNAc (Marker Gene technologies, cat # M1485) results in the formation of ß-D-N-glucosamineacetate and fluorescein. The fluorescence of the latter can be measured at excitation wavelength 485 nm and emission wavelength 538 nm. An increase in enzyme activity results in an increase in fluorescence signal. Full length OGA enzyme was purchased at OriGene (cat # TP322411). The enzyme was stored in 25 mM Tris.HCl, pH 7.3, 100 mM glycine, 10% glycerol at −20° C. […] The assay was performed in 200 mM Citrate/phosphate buffer supplemented with 0.005% Tween-20. 35.6 g Na2HPO4 2 H2O (Sigma, # C0759) were dissolved in 1 L water to obtain a 200 mM solution. […] The buffer to stop the reaction consists of a 500 mM Carbonate buffer, pH 11.0. […] OGA was used at a 10 nM (protocol A) or 2 nM (protocol B) concentration and FM-GlcNAc at a 100 uM final concentration. Dilutions were prepared in assay buffer.
Plates were pre-incubated for 60 min at room temperature and then 2 μl FM-GlcNAc substrate mix added. […] Plates were briefly centrifuged for 1 min at 1000 rpm and incubate at room temperature for 1 h (10 nM OGA, protocol A) or 6 h (2 nM OGA, protocol B). To stop the reaction 5 μl STOP buffer were added and plates centrifuge again 1 min at 1000 rpm. Fluorescence was quantified in the Thermo Scientific Fluoroskan Ascent or the PerkinElmer EnVision with excitation wavelength 485 nm and emission wavelength 538 nm.
For analysis a best-fit curve is fitted by a minimum sum of squares method. From this an IC50 value and Hill coefficient was obtained. High control (no inhibitor) and low control (saturating concentrations of standard inhibitor) were used to define the minimum and maximum values.

[2] = biological target: T2, OGA (Homo sapiens, UniProt O60502); assay: OGA cellular assay: immunocytochemical detection of O-GlcNAcylated proteins in HEK293 cells inducible for P301L mutant human Tau; type: cell-based; conditions: for Emax: HEK293, read-out: Cellular Emax (%); for Cellular hOGA; pEC50 / Cellular Emax (%): HEK293 cells inducible for P301L mutant human Tau, 6 hours incubation; for Cellular Emax (%): maximum = Thiamet G 200 uM
T2 construct: HEK293 cells inducible for P301L mutant human Tau (isoform 2N4R) were established at Janssen; endogenous in cells; host or cells: HEK293 cells inducible for P301L mutant human Tau (2N4R)
T2 sequence (O60502 1-916): T1 sequence (O60502 1-916)
Text: HEK293 cells inducible for P301L mutant human Tau (isoform 2N4R) were established at Janssen. Thiamet-G was used for both plate validation (high control) and as reference compound (reference EC50 assay validation). […] Inhibition of OGA will result in an increase of O-GlcNAcylated protein levels resulting in an increased signal in the experiment. […] ICC pictures are imaged with a Perkin Elmer Opera Phenix plate microscope and quantified with the provided software Perkin Elmer Harmony 4.1.
Cells were propagated in DMEM high Glucose (Sigma, # D5796) following standard procedures. […] At the day of compound test medium from assay plates was removed and replenished with 90 μl of fresh Assay Medium. 10 μl of compounds at a 10 fold final concentration were added to the wells. Plates were centrifuged shortly before incubation in the cell incubator for 6 hours. DMSO concentration was set to 0.2%. Medium is discarded by applying vacuum. For staining of cells medium was removed and cells washed once with 100 μl D-PBS (Sigma, # D8537). From next step onwards unless other stated assay volume was always 50 μl and incubation was performed without agitation and at room temperature. […] Before analysis samples were washed 2 times manually for 5 minutes in ICC base buffer.
Imaging is performed using Perkin Elmer Phenix Opera using a water 20× objective and recording 9 fields per well. Intensity readout at 488 nm is used as a measure of O-GlcNAcylation level of total proteins in wells. To assess potential toxicity of compounds nuclei were counted using the Hoechst staining. IC50-values are calculated using parametric non-linear regression model fitting. As a maximum inhibition Thiamet G at a 200 uM concentration is present on each plate. In addition, a concentration response of Thiamet G is calculated on each plate.

[3] = Enzymatic protocol A (10 nM OGA, 1 h)
[4] = Enzymatic protocol B (2 nM OGA, 6 h)

| Structure (SMILES) | Emax [1, 4] [%] | IC50 [1, 4] [nM] | EC50 [2] [nM] | Emax [2] [%] | other results |
| --- | --- | --- | --- | --- | --- |
| CC(=O)Nc1ncc(S(=O)(=O)N2CCC[C@@H](c3ccnc4ncnn34)C2)s1 [Product 1] | – | – | – | – | Emax [1, 3]: 94.2%; IC50 [1, 3]: 871 nM |
| CC(=O)Nc1ncc(CN2CCC(c3cc(C)nc4ncnn34)C2)s1 (stereo not shown) [Product 18] | 97.3 | 295 | – | – | – |
| CC(=O)Nc1ncc(CN2CCC(c3cc(C)nc4ccnn34)C2)s1 (stereo not shown) [Product 21] | 98.3 | 407 | – | – | – |
| CC(=O)Nc1ncc(CN2CCCC(Cc3cnc4cc[nH]c4c3)C2)s1 (stereo not shown) [Product 97] | 102 | 1.74 | 7.76 | 109 | – |
| CC(=O)Nc1ncc(CN2CCC[C@@H](c3cnc4ccn(C)c4c3)C2)s1 (single isomer, unassigned) [Product 79] | – | – | – | – | Cellular hOGA; pEC50 [2]: 7.87; Cellular Emax (%) [2]: 101.35%; Enzymatic Emax (%) [1, 4]: 102.15%; Enzymatic hOGA; pIC50 [1, 4]: 8.14 |
| CC(=O)Nc1ncc(CN2CCCC(c3cccc4nccn34)C2)s1 (racemic) [Product 12] | 105 | 10.7 | 20.9 | 103 | – |
| CC(=O)Nc1ncc(CN2CCCC(c3cc4ccn(C)c4nc3C)C2)s1 (stereo not shown) [Product 101] | 102 | 6.61 | 9.33 | 114 | – |
| CC(=O)Nc1ncc(CN2CCCC(c3cc4c(ccn4C)nc3C)C2)s1 (stereo not shown) [Product 105] | 102 | 7.41 | – | – | – |
| Cc1cc(C2CCCN(C(C)c3ccc4c(c3)OCO4)C2)n2ccnc2n1 (stereo not shown) [Product 52] | 101 | 18.6 | 2630 | 131 | – |
| CC(=O)Nc1ncc(CN2CCC[C@H](c3cc4cc[nH]c4nc3C)C2)s1 (single isomer, unassigned) [Product 75] | – | – | – | – | Cellular hOGA; pEC50 [2]: 7.90; Cellular Emax (%) [2]: 119.60%; Enzymatic Emax (%) [1, 4]: 100.81%; Enzymatic hOGA; pIC50 [1, 4]: 8.57 |
| CC(=O)Nc1ncc(CN2CCCC(c3ccnc4nccn34)C2)s1 (racemic) [Product 10] | 100 | 35.5 | 209 | 99 | – |
| CC(=O)Nc1ncc(CN2CCCC(c3nc(C)cc4cc[nH]c34)C2)s1 (stereo not shown) [Product 91] | 103 | 95.5 | 44.7 | 84.3 | – |
| CC(=O)Nc1ncc(CN2C[C@@H](c3cc(C)nc4ncnn34)C[C@@H](C(F)(F)F)C2)s1 (mixture of isomers) [Product 84] | 88.5 | 1480 | – | – | – |
| CC(=O)Nc1ncc(CN2CCC(Cc3c(F)c(C)nc4ncnn34)C2)s1 (stereo not shown) [Product 49] | 101 | 1.74 | 25.7 | 105 | – |
| Cc1cc(C2CN(C(C)c3ccc4c(c3)OCO4)CCO2)n2ncnc2n1 (stereo not shown) [Product 53] | 64.6 | 6460 | – | – | – |
| CC(=O)Nc1ncc(S(=O)(=O)N2CCCCC(c3ccnc4ncnn34)C2)s1 (stereo not shown) [Product 109] | – | – | – | – | Emax [1, 3]: 95.4%; IC50 [1, 3]: 437 nM |
| CC(c1ccc2c(c1)OCO2)N1CCOC(c2cc(C(F)(F)F)nc3ncnn23)C1 (stereo not shown) [Product 54] | 25.1 | > 10000 | – | – | – |

| Structure (SMILES) | Emax [1, 4] [%] | IC50 [1, 4] [nM] | EC50 [2] [nM] | Emax [2] [%] | other results |
| --- | --- | --- | --- | --- | --- |
| CC(=O)Nc1ncc(CN2CCCC(Cc3cncc4nccn34)C2)s1 (stereo not shown) [Product 45] | 100 | 4.68 | 13.5 | 96.9 | – |
| CC(=O)Nc1ncc(CN2CCCC(C)(c3cc(C(F)F)nc4ncnn34)C2)s1 (stereo not shown) [Product 61] | 27.4 | > 10000 | – | – | – |
| CC(c1ccc2c(c1)OCO2)N1CCOC(c2ccnc3ncnn23)C1 (stereo not shown) [Product 55] | 51.8 | 9550 | > 10000 | 1.01 | – |
| CC(=O)Nc1ncc(CN2CCC(Cc3cc(C)nc4ncnn34)C2)s1 (stereo not shown) [Product 48] | 103 | 1.74 | 17 | 104 | – |
| CC(=O)Nc1ncc(S(=O)(=O)N2CCCC(c3ccnc4nccn34)C2)s1 (racemic) [Product 2] | – | – | – | – | Emax [1, 3]: 98.4%; IC50 [1, 3]: 186 nM |
| CC(=O)Nc1ncc(CN2CCCC(c3cc(C)nc4nccn34)C2)s1 (stereo not shown) [Product 17] | 101 | 8.51 | 55 | 106 | – |
| CC(=O)Nc1ncc(CN2CC[C@H](Cc3cccc4nccn34)C2)s1 [Product 107] | 101 | 8.13 | 55 | 82 | – |
| CC(=O)Nc1ncc(CN2CCC[C@H](c3ccnc4ccn(C)c34)C2)s1 (single isomer, unassigned) [Product 71] | 100 | 12.6 | 87.1 | 79.2 | – |
| CC(=O)Nc1ncc(CN2CCCC(c3cnc4cc[nH]c4c3)C2)s1 (stereo not shown) [Product 106] | 101 | 275 | 282 | 71 | – |
| CC(=O)Nc1ncc(S(=O)(=O)N2CCC(c3cc(C)nc4ncnn34)C2)s1 (racemic) [Product 8] | – | – | – | – | Emax [1, 3]: 89%; IC50 [1, 3]: 1550 nM |
| CC(=O)Nc1ncc(CN2CC[C@H](C)[C@@H](c3cc(C(F)F)nc4ncnn34)C2)s1 [Product 16] | 94.5 | 955 | – | – | Emax [1, 3]: 92.5%; IC50 [1, 3]: 1820 nM |
| CC(=O)Nc1ncc(S(=O)(=O)N2CCCC(c3cc(C)nc4ncnn34)C2)s1 (racemic) [Product 3] | – | – | – | – | Emax [1, 3]: 96%; IC50 [1, 3]: 32.4 nM |
| CC(=O)Nc1ncc(CN2CCC(c3c(F)c(C)nc4ncnn34)C2)s1 (stereo not shown) [Product 19] | 97.2 | 204 | – | – | – |
| CC(c1ccc2c(c1)OCO2)N1CCC(Cc2cccc3nccn23)C1 (stereo not shown) [Product 67] | 95.7 | 102 | – | – | – |
| CC(=O)Nc1ncc(S(=O)(=O)N2CCCC(c3cc(C(F)F)nc4nccn34)C2)s1 (racemic) [Product 5] | – | – | – | – | Emax [1, 3]: 99.4%; IC50 [1, 3]: 67.6 nM |
| CC(=O)Nc1ncc(S(=O)(=O)N2CCC[C@H](c3ccnc4ncnn34)C2)s1 [Product 4] | – | – | – | – | Emax [1, 3]: 107%; IC50 [1, 3]: 30.9 nM |
